Measurements published in patent US20030194738A1, “Antisense oligonucleotide compositions and methods for the modulation of activating protein 1” (priority 1997, published 2003).
Several values for one entry are separate records, joined by “and”; a condition that tells them apart may be missing. Equal entries are not always repeated. Entries after “also recorded” stand apart in the source; their conditions may differ. Strand notation (5' to 3'): a small letter for the sugar, then the base; units joined by * are phosphorothioate-linked, units joined directly phosphodiester-linked; [ ] holds rarer units or linkages, { } end groups; capitals alone tell only the bases. d = 2'-deoxy (DNA)

How the values were obtained:
c-Fos protein = c-Fos protein levels in TPA-induced A549 cells, immunoblot; type: cell-based, human; details: TPA (1 uM) for three hours; for c-Fos (protein level): Table 7, TPA - no oligo = 100, basal = 21
Experimental: The ability of the c-fos active oligonucleotide ISIS 10639 to reduce expression of the c-Fos protein was examined as follows. A549 cells were treated with oligonucleotides as in Examples 2-3, except that induction of c-Fos was effected by treatment of cells with TPA (1 uM) for three hours. At this time, whole cell protein was extracted in SDS (sodium dodecyl sulfate) buffer. Samples of extracts were electrophoresed, transferred to nitrocellulose filters which were immunoblotted using a c-Fos-specific antibody (Santa Cruz AB, Santa Cruz, Calif.).

c-fos mRNA [1] = test: c-fos mRNA expression in TPA-induced A549 cells, Northern blotting; type: cell-based, human; details: for c-fos (mRNA level, specificity experiment): Table 5, TPA - no oligo = 100, basal = 5
Experimental: (§1) In order to evaluate the activity of potential c-fos and c-jun modulating oligonucleotides, A549 cells were grown in T-75 flasks until 80-90% confluent. (Cell line A549 is available from, inter alia, the American Type Culture Collection, Rockville, Md., as ATCC No. CCL-185.) At this time, the cells were washed twice with 10 mL of media (DMEM), followed by the addition of 5 mL of DMEM containing 20 μg/mL of LIPOFECTIN™ (i.e., DOTMA/DOPE (N-[1-(2,3-dioleyloxy)propyl]-N,N,N-[…] chloride/dioleoylphosphatidyl ethanolamine)). The oligonucleotides were added from a 10 μM stock solution to a final concentration of 400 nM, and the two solutions were mixed by swirling the flasks. After 4 hours at 37° C., the medium was replaced with DMEM containing 10% serum. At this point, 1 μM 12-O-tetradecanoylphorbol 13-acetate (TPA) was added to induce expression of c-fos and c-jun. Cells were extracted in guanidinium one hour later, and the c-fos and c-jun mRNA expression was determined by Northern blotting. Probes for human c-jun and c-fos were PCR products prepared using primers based on the published sequences thereof (respectively, Hattori et al., Proc. Natl. Acad. Sci. U.S.A., 1988, 85:9148, and Van Straaten et al., Proc. Natl. Acad. Sci. U.S.A., 1983, 80:3183).
Finally, it can also be seen from Table 5 that neither active oligonucleotide has any detectable effect on mRNA levels of the other active oligonucleotide's target.
Once oligonucleotides that modulate c-Fos or c-Jun are identified, derivative or modified oligonucleotides having the same sequence thereas are prepared. In order to evaluate the effect of chemical modifications to oligonucleotides to c-fos and c-jun, the modified oligonucleotides described in Tables 8 and 9 were prepared. The effect of the c-fos-targeted oligonucleotides on c-fos RNA levels were evaluated as described in Examples 2-3. […] Other modified oligonucleotides of the invention are evaluated in like fashion. In order to evaluate the effect of PNA antisense analogs, the PNA analogs of the invention are introduced into appropriate cell lines by microinjection according to the method of Hanvey et al. (Science, 1992, 258:1481). Intracellular delivery of PNA analogs is confirmed by the use of a fluorescently tagged PNA antisense analog conjugate such as, e.g., ISIS 14240.

A549 tumors = test: Growth of A549 tumor fragments implanted subcutaneously in nude mice; type: in vivo; details: 25 mg/kg daily i.v. for three weeks; for Mean Tumor Weight: nude mice
Experimental: In order to evaluate the in vivo activity of c-fos oligonucleotides, 25 mg of tumor fragments of A549 tumors were implanted subcutaneously in nude mice (n=6). ISIS 10639 was administered daily, i.v., for three weeks. The oligonucleotide dosage was 25 mg/kg. […] By day 34, saline-treated tumors were 0.56±0.12 g by weight, while tumors treated with ISIS 10639 were 0.31±0.1 g by weight.

c-fos mRNA [2] = test: c-fos mRNA expression in TPA-induced A549 cells, Northern blotting; type: cell-based, human; details: TPA induction, 1 hour
c-jun mRNA = c-jun mRNA expression in TPA-induced A549 cells, Northern blotting; type: cell-based, human; details: for effect on c-jun mRNA levels during TPA induction (in words) / c-jun (mRNA level, specificity experiment) / c-jun mRNA LEVELS (% CONTROL): A549 cells; for c-jun (mRNA level, specificity experiment): Table 5, TPA - no oligo = 100, basal = 23; for c-jun mRNA LEVELS (% CONTROL): TPA induction, 1 hour
Experimental: as §1, with “The oligonucleotides were added from a 10 μM stock solution to a final concentration of 400 nM, and the two solutions were mixed by swirling the flasks.” left out

MMP-9 = MMP-9 expression in TPA-induced normal human epidermal keratinocytes; type: cell-based; details: for MMP-9 (expression): Table 17, NHEK cells harvested 24 hours after TPA treatment for 4 hours, TPA - no oligo = 100, basal = 4
From the text: The matrix metalloproteinases (MMPs) are a family of enzymes which have the ability to degrade components of the extracellular matrix (Birkedal-Hansen, Current Op. Biol., 1995, 7, 728). […] In particular, one member of this family, matrix metalloproteinase-9 (MMP-9), is often found to be expressed only in tumors and other diseased tissues (Himeistein et al., Invasion & Metastasis, 1994, 14, 246). Several studies have shown that regulation of the MMP-9 gene may be controlled by the AP-1 transcription factor (Kerr et al., Science, 1988, 242, 1242; Kerr et al., Cell, 1990, 61, 267; Gum et al., J. Biol. Chem., 1996, 271, 10672; Hua et al., Cancer Res., 1996, 56, 5279). In order to determine whether MMP-9 expression can be influenced by AP-1 modulation, the following experiments were conducted on normal human epidermal keratinocytes (NHEKs). Although NHEKs normally express no detectable MMP-9, MMP-9 can be induced by a number of stimuli, including TPA. ISIS 10582, an oligonucleotide targeted to c-jun, was evaluated for its ability to modulate MMP-9 expression according to the protocols described in Examples 2-3 with the following exceptions: (1) NHEK cells were used instead of A549 cells, (2) the probe used, a PCR product prepared using the published sequence of the MMP-9 gene (Huhtala et al., J. Biol. Chem., 1991, 266:16485; Sato et al., Oncogene, 1993, 8:395), is specific for MMP-9 rather than c-jun, and (3) the cells were harvested 24 hours after TPA treatment for 4 hours.

c-Jun = test: Induction of c-Jun by TNF-a, IL-1b or TGF-b in A549 cells; type: cell-based, human; details: for c-Jun induction by IL-1b: inducer IL-1b 10 ng/ml, No Oligo = 100, basal = 9; for c-Jun induction by TGF-b: inducer TGF-b 10 ng/ml, No Oligo = 100, basal = 2; for c-Jun induction by TNF-a: inducer TNF-a 10 ng/ml, No Oligo = 100, basal = 5
Experimental: Inducing agents other than TPA function to raise AP-1 levels in vivo. In order to assess the ability of oligonucleotides targeted to AP-1 to antagonize the action of three such inducers, A549 cells were treated and evaluated as in Examples 2 et seq. with the exception that TNF-a, IL-1b or TGE-b (each at 10 ng/mi and all from R&D Systems, Minneapolis, Minn.) were used in place of TPA as inducers.

[3] = 400 nM oligonucleotide with LIPOFECTIN, control is TPA induction, at 1 hour, in A549 cells
[4] = 400 nM oligonucleotide, TPA-induced A549 cells

Substance | c-Fos (protein level) (c-Fos protein) | effect on c-fos mRNA levels during TPA induction (in words) (c-fos mRNA [1]; A549 cells) | c-fos (mRNA level, specificity experiment) (c-fos mRNA [1]; A549 cells) | effect on c-jun mRNA levels during TPA induction (in words) (c-jun mRNA) | c-jun (mRNA level, specificity experiment) (c-jun mRNA) | MMP-9 (expression) (MMP-9) | also measured
AAG-TCC-TTG-AGG-CCC-ACA-GC (AAGTCCTTGAGGCCCACAGC; antisense; all phosphorothioate, sugars by position and methylation of C not given here) [ISIS 10639] | 19 | dose-dependent; also recorded: potent and specific inhibition | 9 | no detectable effect | 97 | – | c-Fos protein level (in words) (c-Fos protein; A549 cells): basal levels; c-fos mRNA % CONTROL (c-fos mRNA [1]; [3]): 9 % CONTROL; inhibition of c-fos mRNA expression (c-fos mRNA [1]; [4]): 91%; c-fos mRNA LEVELS (% CONTROL) (c-fos mRNA [1]; 400 nM oligonucleotide, TPA induction, 1 hour, A549 cells): 9 % CONTROL; c-fos (expression, modified oligonucleotides) (c-fos mRNA [1]; Table 10, TPA - no oligo = 100, basal = 3, A549 cells): 9; tumor growth rate (in words) (A549 tumors; versus saline): substantial reduction; Mean Tumor Weight (A549 tumors; Day 17): 0.105 g; Mean Tumor Weight (A549 tumors; Day 20): 0.138 g; Mean Tumor Weight (A549 tumors; Day 27): 0.225 g; Mean Tumor Weight (A549 tumors; Day 34, 25 mg/kg): 0.31 ± 0.1 g and 0.310 g; c-fos mRNA LEVELS (% CONTROL) (c-fos mRNA [2]; 50 nM oligonucleotide): 64 % CONTROL; c-fos mRNA LEVELS (% CONTROL) (c-fos mRNA [2]; 100 nM oligonucleotide): 46 % CONTROL; c-fos mRNA LEVELS (% CONTROL) (c-fos mRNA [2]; 200 nM oligonucleotide): 20.5 % CONTROL
ATG-TGC-TAG-ATG-CGC-AAA-GT (ATGTGCTAGATGCGCAAAGT; antisense; DNA, all phosphorothioate, methylation of C not given here) [ISIS 11185] | 91 | no detectable effect | 93 | – | 98 | – | –
GAG-AGA-CCG-TCG-GGC-GCT-GA (GAGAGACCGTCGGGGGCTGA; listed as DNA, chemistry not given here) [ISIS 11562] | – | – | 89 | – | – | 99 | –
CAC-CTC-CAC-GCG-CTT-CTG-GC (dC*dA*dC*dC*dT*dC*dC*dA*dC*dG*dC*dG*dC*dT*dT*dC*dT*dG*dG*dC; antisense) [ISIS 11563] | – | – | 99 | – | – | 95 | stimulation / induction of c-Jun by TNF-a or IL-1b (in words) (c-Jun): did not reverse; c-Jun induction by IL-1b (c-Jun): 94; c-Jun induction by TGF-b (c-Jun): 99; c-Jun induction by TNF-a (c-Jun): 98
TCG-GCA-CCT-GAA-GGA-CTT-TC (dT*dC*dG*dG*dC*dA*dC*dC*dT*dG*dA*dA*dG*dG*dA*dC*dT*dT*dT*dC; antisense) [ISIS 11564] | – | – | 99 | no detectable effect | 71 | 89 | –
TCA-GCC-CCC-GAC-GGT-CTC-TC (dT*dC*dA*dG*dC*dC*dC*dC*dC*dG*dA*dC*dG*dG*dT*dC*dT*dC*dT*dC; antisense) [ISIS 10582] | – | no detectable effect | 91 | dose-dependent; also recorded: potent and specific inhibition | 4 | 6 | expression of MMP-9 after induction with TPA (in words) (MMP-9; NHEK cells): completely inhibit; c-jun mRNA LEVELS (% CONTROL) (c-jun mRNA; 50 nM oligonucleotide): 72 % CONTROL; c-jun mRNA LEVELS (% CONTROL) (c-jun mRNA; 100 nM oligonucleotide): 45.5 % CONTROL; c-jun mRNA LEVELS (% CONTROL) (c-jun mRNA; 200 nM oligonucleotide): 29.5 % CONTROL; c-jun mRNA % CONTROL (c-jun mRNA; [3]): 17 % CONTROL; inhibition of c-jun mRNA expression (c-jun mRNA; [4]): 83%; c-jun mRNA LEVELS (% CONTROL) (c-jun mRNA; 400 nM oligonucleotide): 16 % CONTROL; stimulation / induction of c-Jun by TNF-a or IL-1b (in words) (c-Jun): effectively reduces; c-Jun induction by IL-1b (c-Jun): 15; c-Jun induction by TGF-b (c-Jun): 95; c-Jun induction by TNF-a (c-Jun): 20
GCT-GTG-GGC-CTC-AAG-GAC-TT (GCTGTGGGCCTCAAGGACTT; antisense; DNA, all phosphorothioate, methylation of C not given here) [ISIS 11184] | 97 | no detectable effect | 84 | – | 91 | – | –
ACG-TCC-GAT-TCC-GAG-CGC-AA (ACGTCCGATTCCGAGCGCAA; antisense; DNA, all phosphorothioate, methylation of C not given here) [ISIS 11186] | 99 | no detectable effect | 98 | – | 99 | – | –
